Measurements reported in patent publication US5571518A, “Cosmetic compositions containing tricholine citrate” (priority 1995, dated 1996).
Like-named read-outs stand apart in the source and are kept apart here.

Legend:
Assay type in all cases: cell-based
[1] = system: human keratinocytes; assay: DNA synthesis in keratinocytes (3H-thymidine incorporation, keratinocyte proliferation); settings: Homo sapiens, Keratinocyte; for activity at 0.1 µM / activity at 1 µM / activity at 10 µM / activity at 100 µM / activity at 1000 µM / activity at 10000 µM: read-out: Rate of DNA synthesis; for minimal effective concentration: read-out: concentration at which inhibitory to DNA synthesis
Description: (§1) The incorporation of ^3 H-thymidine by cultured keratinocytes was used as an assay of keratinocyte proliferation. Thymidine is one of four deoxynucleosides which are the monomeric units of DNA, the universal library of genetic information in the animal kingdom. Prior to cell division of a somatic cell such as a keratinocyte, the complete genome of the cell undergoing cell division is replicated. This involves large scale DNA synthesis by the cell and enables both daughter cells to receive identical copies of the genetic material. When ^3 H-thymidine is included in the culture media of keratinocytes which are synthesizing DNA in preparation for cell division then the labelled nucleoside is incorporated into the newly synthesized DNA. The extent of incorporation of ^3 H-thymidine into a population of cells is proportional to the rate of DNA synthesis by this population of cells and therefore an indication of their cellular proliferation.
1. Normal human keratinocytes isolated from neonatal foreskins by trypsin treatment were grown in DME medium/5% fetal calf serum in the presence of mitomycin C treated 3T3 mouse fibroblasts for establishing dividing keratinocyte colonies. Keratinocytes were grown under the above condition until their third passage.
2. For the experiments, third passage keratinocytes were plated into a serum-free keratinocyte growth medium (KGM; obtained from Clonetics, San Diego, Calif.) containing 0.09 mM calcium. 20,000 to 30,000 cells were plated into each well of 24 well cell culture plates and grown for 5 days, until the cells reach about 80% confluence.
3. Medium was changed to fresh medium and the various test materials were added to the medium from an ethanolic stock solution. The final ethanol concentration in the cultures was kept below 0.2%. Control cultures received no tested material but were dosed with 0.2% ethanol. Each compound or combination was tested in three separate wells. In four hours, 1 uCi of ^3 H-thymidine (Amersham Corp., Sp activity 40 Ci/mmol) was added to the 1 ml medium in each well. The cells were incubated overnight and 24 hours later the amount of ^3 H-thymidine associated with the cellular DNA of keratinocytes was assessed as described below.
(§2) 4. The medium was aspirated, and the wells washed with 1 ml phosphate-buffered saline. The DNA and proteins of the cells in the plate were then precipitated by adding 1 ml of ice-cold 10% trichloroacetic acid (TCA). The plates were left on ice for 30 minutes to complete the precipitation process. TCA was then aspirated and each well was then washed four times with 5% TCA. The plates were then dried on a filter pad and the cells in the wells were dissolved in 0.5 ml of 0.1N sodium hydroxide. The sodium hydroxide was then neutralized using 0.1N hydrochloric acid and the solution (1 ml total volume) was then transferred to a scintillation vial. 50 μl samples from each vial were used for protein assay using BCA protein assay reagent obtained from Pierce Chemical Company. 8 ml of a scintillation fluid (Ecolume) was added to the rest of the solution in the vial, and the vials were counted in a scintillation counter to determine the amount of radioactivity in each vial. The DNA synthesis rate was then calculated as cpm ^3 H thymidine incorporated into total cellular DNA/microgram of cell protein for each individual well.

[2] = Signs of cytotoxicity in / tolerance by keratinocytes; settings: human, 24 hours exposure, read-out: concentration at which cells showed signs of cytotoxicity
Protocol: Effects of 24 hours exposure to 0.1 μM to 10 mM of citric acid, choline or the different citrate esters on keratinocyte DNA synthesis are shown in table 1. Rate of DNA synthesis calculated as cpm ^3 H thymidine incorporated into cellular DNA/μg of cell protein is expressed as % of control (no addition controls) ±SD. The actual amount of cpm/μg protein of the control is 1103 ±88.

[3] = system: human keratinocytes; assay: cells; settings: Keratinocyte, five days, choline-free medium, ±SD, * statistically significant, read-out: Protein
Protocol: (§3) Human keratinocytes, isolated from neonatal foreskin by trypsin treatment were grown in Dulbecco Modification Eagle (DME) Hams F12 (3:1) medium/5% fetal calf serum in the presence of mitomycin C treated 3T3 mouse fibroblasts for establishing dividing keratinocyte colonies. Cells were grown under the above condition until their second passage and kept frozen for future use. Frozen second passage keratinocytes were thawed and plated into the above medium and grown for five days. On day 5, when the cells were 70-80% confluent, they were trypsinized and plated in the serum-free medium for the various experiments.
as §2, with “well. Mean and standard deviation for each group was also calculated.” for “well.”
(§4) The aged epidermis may be choline deficient due to the decreased capillary circulation to the skin. To simulate the choline-deficient in vitro system, keratinocytes were plated in complete medium and 48 hours later switched to choline-free medium. The cells were then grown for five days in the choline-free medium with or without addition of different amounts of choline or TCC. To determine whether TCC can provide choline for keratinocyte proliferation under these conditions, on day 5, the amount of ^3 H thymidine incorporation into DNA was determined as in the previous experiment. The protein content of the wells were also quantitated. Both these parameters were expressed as % of control ±SD.

[4] = system: human keratinocytes; assay: DNA synthesis (3H thymidine incorporation) in keratinocytes in choline-free medium; settings: Keratinocyte
Protocol: as §3, §1
as §2, with “well. Mean and standard deviation for each group was also calculated.” for “well.”
as §4

[5] = 100 μM, 24 hours exposure, ±SD, * statistically significant compared to controls
[6] = 1000 μM, 24 hours exposure, ±SD, * statistically significant compared to controls
[7] = 10,000 μM, 24 hours exposure, ±SD, * statistically significant compared to controls

`CCOC(=O)CC(O)(CC(=O)OCC)C(=O)OCC` [TEC, triethylcitrate] showed an activity at 0.1 µM ([1]; 0.1 μM, 24 hours exposure, ±SD) of 112 ± 21.5%, an activity at 1 µM ([1]; 1.0 μM, 24 hours exposure, ±SD) of 112 ± 13.1% and an activity at 10 µM ([1]; 10 μM, 24 hours exposure, ±SD) of 79.1 ± 13.9%. The activity at 100 µM [1, 5] was 9.8 ± 2.3%, the activity at 1000 µM [1, 6] was 11.2 ± 9.2% and the activity at 10000 µM [1, 7] was 1.2 ± 0.02%. For the same compound, the minimal effective concentration ([1]; 24 hours exposure) was over 10 µM and the MCC at 24 h [2] was at least 1 mM.

In the case of `C[N+](C)(C)CCO` [Choline, choline], the activity at 1 µM ([3]; 120 h, 1 μM) is reported as 197 ± 21.8%, the activity at 10 µM ([3]; 120 h, 10 μM) is reported as 264 ± 50% and the activity at 100 µM ([3]; 120 h, 100 μM) is reported as 276 ± 52%. For the same compound, the activity at 1000 µM ([3]; 120 h, 1000 μM) was 229 ± 29%, the activity at 10000 µM ([3]; 120 h, 10,000 μM) was 209 ± 13.7% and the activity at 1 µM ([4]; 120 h, 1 μM, five days, choline-free medium, ±SD, * statistically significant) was 261 ± 5.6%. For the same compound, the activity at 10 µM ([4]; 120 h, 10 μM, five days, choline-free medium, ±SD, * statistically significant) was 313 ± 11.4%, the activity at 100 µM ([4]; 120 h, 100 μM, five days, choline-free medium, ±SD, * statistically significant) was 315 ± 29.3% and the activity at 1000 µM ([4]; 120 h, 1000 μM, five days, choline-free medium, ±SD, * statistically significant) was 297 ± 11.3%. For the same compound, the activity at 10000 µM ([4]; 120 h, 10,000 μM, five days, choline-free medium, ±SD, * statistically significant) was 270 ± 11.2%, the minimal effective concentration ([4]; read-out: lowest concentration that increased proliferation (both DNA synthesis and protein content)) was 1 µM and the activity at 0.1 µM ([1]; 24 h) was 125 ± 17.6%. For the same compound, the activity at 1 µM ([1]; 24 h) was 113 ± 12%, the activity at 10 µM ([1]; 24 h) was 109 ± 3.3% and the activity at 100 µM ([1]; 24 h) was 114 ± 12%. For the same compound, the activity at 1000 µM ([1]; 24 h) was 115 ± 24% and the activity at 10000 µM ([1]; 24 h) was 127 ± 10.7%.

`CCCCOC(=O)CC(O)(CC(=O)OCCCC)C(=O)OCCCC` [TBC, tributylcitrate] gave an activity at 0.1 µM ([1]; 0.1 μM, 24 hours exposure, ±SD) of 106 ± 8.4%, an activity at 1 µM ([1]; 1.0 μM, 24 hours exposure, ±SD) of 100 ± 28% and an activity at 10 µM ([1]; 10 μM, 24 hours exposure, ±SD) of 68.2 ± 13%. For the same compound, the activity at 100 µM [1, 5] was 8.7 ± 5.5%, the activity at 1000 µM [1, 6] was 1.35 ± 0.1% and the activity at 10000 µM [1, 7] was 0.505%. For the same compound, the minimal effective concentration ([1]; 24 hours exposure) was over 10 µM and the MCC at 24 h [2] was at least 1 mM.
